Measured values: ChEMBL document CHEMBL5236661, “A new selective inhibitor for IMP-1 metallo-β-lactamase, 3Z,5E-octa-3,5-diene-1,3,4-tricarboxylic acid-3,4-anhydride” (Bioorg Med Chem, 2023)
Converted amounts (≈) assume the structure as drawn. The source made the active and inactive calls. No cut-off for these calls is given here.

molecular target: not listed separately; assay: Inhibition of bacterial Metallo-beta-lactamase IMP-1 using nitrocefin as substrate pre-incubated for 15 mins followed by substrate addition by microplate reader; design: species or system Bacteria; settings: not given

IC50	Compound
5.9 mg/L (≈ 23.4 µM)	CC/C=C/C1=C(CCCOC(C)=O)C(=O)OC1=O
1.46 mg/L (≈ 5.57 µM)	CCCCC1=C(c2ccc(O)c(O)c2)C(=O)OC1=O

tested on: Escherichia coli; assay: Antibacterial activity against Escherichia coli KB366 expressing IMP-1 assessed as inhibition of bacterial growth at 100 ug in presence of meropenem incubated overnight by paper disk method; type: functional; settings: read-out: IZ

Compound	zone of inhibition at 100 µg/disc
CCCCC1=C(c2ccc(O)c(O)c2)C(=O)OC1=O	29 mm

tested on: Escherichia coli; assay: Antibacterial activity against Escherichia coli KB366 expressing IMP-1 assessed as inhibition of bacterial growth at 30 ug in presence of meropenem incubated overnight by paper disk method; type: functional; settings: read-out: IZ

Compound	zone of inhibition at 30 µg/disc
CCCCC1=C(c2ccc(O)c(O)c2)C(=O)OC1=O	25 mm

tested on: Escherichia coli; assay: Antibacterial activity against Escherichia coli KB366 expressing IMP-1 assessed as inhibition of bacterial growth at 10 ug in presence of meropenem incubated overnight by paper disk method; type: functional; settings: read-out: IZ

Compound	zone of inhibition at 10 µg/disc
CCCCC1=C(c2ccc(O)c(O)c2)C(=O)OC1=O	22 mm

tested on: Escherichia coli; assay: Antibacterial activity against Escherichia coli KB366 expressing IMP-1 assessed as inhibition of bacterial growth at 3 ug in presence of meropenem incubated overnight by paper disk method; type: functional; settings: read-out: IZ

Compound	zone of inhibition at 3 µg/disc
CCCCC1=C(c2ccc(O)c(O)c2)C(=O)OC1=O	20 mm

tested on: Escherichia coli; assay: Antibacterial activity against Escherichia coli KB366 expressing IMP-1 assessed as inhibition of bacterial growth at 1 ug in presence of meropenem incubated overnight by paper disk method; type: functional; settings: read-out: IZ

Compound	zone of inhibition at 1 µg/disc
CCCCC1=C(c2ccc(O)c(O)c2)C(=O)OC1=O	17 mm

tested on: Escherichia coli; assay: Antibacterial activity against Escherichia coli KB366 expressing IMP-1 assessed as inhibition of bacterial growth at 0.3 ug in presence of meropenem incubated overnight by paper disk method; type: functional; settings: read-out: IZ

Compound	zone of inhibition at 0.3 µg/disc
CCCCC1=C(c2ccc(O)c(O)c2)C(=O)OC1=O	13 mm

tested on: Escherichia coli; assay: Antibacterial activity against Escherichia coli KB366 expressing IMP-1 assessed as inhibition of bacterial growth at 0.1 ug in presence of meropenem incubated overnight by paper disk method; type: functional; settings: dose 0.1 µg

Compound	inhibition zone (IZ)
CCCCC1=C(c2ccc(O)c(O)c2)C(=O)OC1=O	inactive

tested on: Escherichia coli; assay: Antibacterial activity against Escherichia coli KB366 expressing IMP-1 assessed as inhibition of bacterial growth at 0.03 ug in presence of meropenem incubated overnight by paper disk method; type: functional; settings: dose 0.03 µg

Compound	inhibition zone (IZ)
CCCCC1=C(c2ccc(O)c(O)c2)C(=O)OC1=O	inactive

tested on: Escherichia coli; assay: Antibacterial activity against Escherichia coli KB366 expressing IMP-1 assessed as inhibition of bacterial growth at 0.01 ug in presence of meropenem incubated overnight by paper disk method; type: functional; settings: dose 0.01 µg

Compound	inhibition zone (IZ)
CCCCC1=C(c2ccc(O)c(O)c2)C(=O)OC1=O	inactive

tested on: Escherichia coli; assay: Antibacterial activity against Escherichia coli KB366 expressing IMP-1 assessed as inhibition of bacterial growth at 100 ug in absence of meropenem incubated overnight by paper disk method; type: functional, organism-based; settings: dose 100.0 µg

Compound	inhibition zone (IZ)
CCCCC1=C(c2ccc(O)c(O)c2)C(=O)OC1=O	inactive

tested on: Escherichia coli; assay: Antibacterial activity against Escherichia coli KB366 expressing IMP-1 assessed as inhibition of bacterial growth at 30 ug in absence of meropenem incubated overnight by paper disk method; type: functional, organism-based; settings: dose 30.0 µg

Compound	inhibition zone (IZ)
CCCCC1=C(c2ccc(O)c(O)c2)C(=O)OC1=O	inactive

tested on: Escherichia coli; assay: Antibacterial activity against Escherichia coli KB366 expressing IMP-1 assessed as inhibition of bacterial growth at 10 ug in absence of meropenem incubated overnight by paper disk method; type: functional, organism-based; settings: dose 10.0 µg

Compound	inhibition zone (IZ)
CCCCC1=C(c2ccc(O)c(O)c2)C(=O)OC1=O	inactive

tested on: Escherichia coli; assay: Antibacterial activity against Escherichia coli KB366 expressing IMP-1 assessed as inhibition of bacterial growth at 3 ug in absence of meropenem incubated overnight by paper disk method; type: functional, organism-based; settings: dose 3.0 µg

Compound	inhibition zone (IZ)
CCCCC1=C(c2ccc(O)c(O)c2)C(=O)OC1=O	inactive

tested on: Escherichia coli; assay: Antibacterial activity against Escherichia coli KB366 expressing IMP-1 assessed as inhibition of bacterial growth at 1 ug in absence of meropenem incubated overnight by paper disk method; type: functional, organism-based; settings: dose 1.0 µg

Compound	inhibition zone (IZ)
CCCCC1=C(c2ccc(O)c(O)c2)C(=O)OC1=O	inactive

tested on: Escherichia coli; assay: Antibacterial activity against Escherichia coli KB366 expressing IMP-1 assessed as inhibition of bacterial growth at 0.3 ug in absence of meropenem incubated overnight by paper disk method; type: functional, organism-based; settings: dose 0.3 µg

Compound	inhibition zone (IZ)
CCCCC1=C(c2ccc(O)c(O)c2)C(=O)OC1=O	inactive

tested on: Escherichia coli; assay: Antibacterial activity against Escherichia coli KB366 expressing IMP-1 assessed as inhibition of bacterial growth at 0.1 ug in absence of meropenem incubated overnight by paper disk method; type: functional, organism-based; settings: dose 0.1 µg

Compound	inhibition zone (IZ)
CCCCC1=C(c2ccc(O)c(O)c2)C(=O)OC1=O	inactive

tested on: Escherichia coli; assay: Antibacterial activity against Escherichia coli KB366 expressing IMP-1 assessed as inhibition of bacterial growth at 0.03 ug in absence of meropenem incubated overnight by paper disk method; type: functional, organism-based; settings: dose 0.03 µg

Compound	inhibition zone (IZ)
CCCCC1=C(c2ccc(O)c(O)c2)C(=O)OC1=O	inactive

tested on: Escherichia coli; assay: Antibacterial activity against Escherichia coli KB366 expressing IMP-1 assessed as inhibition of bacterial growth at 0.01 ug in absence of meropenem incubated overnight by paper disk method; type: functional, organism-based; settings: dose 0.01 µg

Compound	inhibition zone (IZ)
CCCCC1=C(c2ccc(O)c(O)c2)C(=O)OC1=O	inactive

tested on: Pseudomonas aeruginosa; assay: Antibacterial activity against Pseudomonas aeruginosa KB367 expressing IMP-1 assessed as inhibition of bacterial growth at 100 ug in presence of meropenem incubated overnight by paper disk method; type: functional; settings: read-out: IZ

Compound	zone of inhibition at 100 µg/disc
CCCCC1=C(c2ccc(O)c(O)c2)C(=O)OC1=O	19 mm

tested on: Pseudomonas aeruginosa; assay: Antibacterial activity against Pseudomonas aeruginosa KB367 expressing IMP-1 assessed as inhibition of bacterial growth at 30 ug in presence of meropenem incubated overnight by paper disk method; type: functional; settings: read-out: IZ

Compound	zone of inhibition at 30 µg/disc
CCCCC1=C(c2ccc(O)c(O)c2)C(=O)OC1=O	14 mm

tested on: Pseudomonas aeruginosa; assay: Antibacterial activity against Pseudomonas aeruginosa KB367 expressing IMP-1 assessed as inhibition of bacterial growth at 10 ug in presence of meropenem incubated overnight by paper disk method; type: functional; settings: read-out: IZ

Compound	zone of inhibition at 10 µg/disc
CCCCC1=C(c2ccc(O)c(O)c2)C(=O)OC1=O	9 mm

tested on: Pseudomonas aeruginosa; assay: Antibacterial activity against Pseudomonas aeruginosa KB367 expressing IMP-1 assessed as inhibition of bacterial growth at 3 ug in presence of meropenem incubated overnight by paper disk method; type: functional; settings: dose 3.0 µg

Compound	inhibition zone (IZ)
CCCCC1=C(c2ccc(O)c(O)c2)C(=O)OC1=O	inactive

tested on: Pseudomonas aeruginosa; assay: Antibacterial activity against Pseudomonas aeruginosa KB367 expressing IMP-1 assessed as inhibition of bacterial growth at 1 ug in presence of meropenem incubated overnight by paper disk method; type: functional; settings: dose 1.0 µg

Compound	inhibition zone (IZ)
CCCCC1=C(c2ccc(O)c(O)c2)C(=O)OC1=O	inactive

tested on: Pseudomonas aeruginosa; assay: Antibacterial activity against Pseudomonas aeruginosa KB367 expressing IMP-1 assessed as inhibition of bacterial growth at 0.3 ug in presence of meropenem incubated overnight by paper disk method; type: functional, organism-based; settings: dose 0.3 µg

Compound	inhibition zone (IZ)
CCCCC1=C(c2ccc(O)c(O)c2)C(=O)OC1=O	inactive

tested on: Pseudomonas aeruginosa; assay: Antibacterial activity against Pseudomonas aeruginosa KB367 expressing IMP-1 assessed as inhibition of bacterial growth at 0.1 ug in presence of meropenem incubated overnight by paper disk method; type: functional, organism-based; settings: dose 0.1 µg

Compound	inhibition zone (IZ)
CCCCC1=C(c2ccc(O)c(O)c2)C(=O)OC1=O	inactive

tested on: Pseudomonas aeruginosa; assay: Antibacterial activity against Pseudomonas aeruginosa KB367 expressing IMP-1 assessed as inhibition of bacterial growth at 100 ug in absence of meropenem incubated overnight by paper disk method; type: functional, organism-based; settings: dose 100.0 µg

Compound	inhibition zone (IZ)
CCCCC1=C(c2ccc(O)c(O)c2)C(=O)OC1=O	inactive

tested on: Pseudomonas aeruginosa; assay: Antibacterial activity against Pseudomonas aeruginosa KB367 expressing IMP-1 assessed as inhibition of bacterial growth at 30 ug in absence of meropenem incubated overnight by paper disk method; type: functional, organism-based; settings: dose 30.0 µg

Compound	inhibition zone (IZ)
CCCCC1=C(c2ccc(O)c(O)c2)C(=O)OC1=O	inactive

tested on: Pseudomonas aeruginosa; assay: Antibacterial activity against Pseudomonas aeruginosa KB367 expressing IMP-1 assessed as inhibition of bacterial growth at 10 ug in absence of meropenem incubated overnight by paper disk method; type: functional, organism-based; settings: dose 10.0 µg

Compound	inhibition zone (IZ)
CCCCC1=C(c2ccc(O)c(O)c2)C(=O)OC1=O	inactive

tested on: Pseudomonas aeruginosa; assay: Antibacterial activity against Pseudomonas aeruginosa KB367 expressing IMP-1 assessed as inhibition of bacterial growth at 3 ug in absence of meropenem incubated overnight by paper disk method; type: functional, organism-based; settings: dose 3.0 µg

Compound	inhibition zone (IZ)
CCCCC1=C(c2ccc(O)c(O)c2)C(=O)OC1=O	inactive

tested on: Pseudomonas aeruginosa; assay: Antibacterial activity against Pseudomonas aeruginosa KB367 expressing IMP-1 assessed as inhibition of bacterial growth at 1 ug in absence of meropenem incubated overnight by paper disk method; type: functional, organism-based; settings: dose 1.0 µg

Compound	inhibition zone (IZ)
CCCCC1=C(c2ccc(O)c(O)c2)C(=O)OC1=O	inactive

tested on: Pseudomonas aeruginosa; assay: Antibacterial activity against Pseudomonas aeruginosa KB367 expressing IMP-1 assessed as inhibition of bacterial growth at 0.3 ug in absence of meropenem incubated overnight by paper disk method; type: functional, organism-based; settings: dose 0.3 µg

Compound	inhibition zone (IZ)
CCCCC1=C(c2ccc(O)c(O)c2)C(=O)OC1=O	inactive

tested on: Pseudomonas aeruginosa; assay: Antibacterial activity against Pseudomonas aeruginosa KB367 expressing IMP-1 assessed as inhibition of bacterial growth at 0.1 ug in absence of meropenem incubated overnight by paper disk method; type: functional, organism-based; settings: dose 0.1 µg

Compound	inhibition zone (IZ)
CCCCC1=C(c2ccc(O)c(O)c2)C(=O)OC1=O	inactive
